Measurements from US7459470B2, “N-oxide anthranylamide derivatives and their use as medicaments” (Schering AG, priority 2001, dated 2008).
pIC50: −log10 of the molar value.

Key:
VEGFR II (KDR) = VEGFR II (KDR) (Homo sapiens, UniProt P35968); assay: Inhibition of the KDR kinase activity (33P-ATP, poly-(Glu4Tyr) filter assay); format: biochemical; settings: phosphate incorporation into poly-(Glu4Tyr), 10 minutes at room temperature
Description: • Stock Solutions • Stock solution A: 3 mmol of ATP in water, pH 7.0 (−70° C.) • Stock solution B: g-33P-ATP 1 mCi/100 μl • Stock solution C: poly-(Glu4 Tyr). 10 mg/ml in water Solution for Dilutions • Substrate solvent: 10 mmol of DTT, 10 mmol of manganese chloride, 100 mmol of magnesium chloride • Enzyme solution: 120 mmol of tris/HCl, pH 7.5, 10 μM of sodium vanadium oxide Sample Application 1 Inhibition of the KDR- and FLT-1 Kinase Activity in the Presence of the Compounds According to the Invention
In a microtiter plate (without protein binding) that tapers to a point, 10 μl of substrate mix (10 μl of volume of ATP stock solution A+25 μCi of g-33P-ATP (about 2.5 μl of stock solution B)+30 μl of poly-(Glu4Tyr) stock solution C+1.21 ml of substrate solvent), 10 μl of inhibitor solution (substances corresponding to the dilutions, 3% DMSO in substrate solvent as a control) and 10 μl of enzyme solution (11.25 μg of enzyme stock solution (KDR or FLT-1 kinase) are added at 4° C. in 1.25 ml of enzyme solution (dilute). It is thoroughly mixed and incubated for 10 minutes at room temperature. Then, 10 μl of stop solution (250 mmol of EDTA, pH 7.0) is added, mixed, and 10 μl of the solution is transferred to a P 81 phosphocellulose filter. Then, it is washed several times in 0.1 M phosphoric acid. The filter paper is dried, coated with Meltilex and measured in a microbeta counter.
The IC50 values are determined from the inhibitor concentration, which is necessary to inhibit the phosphate incorporation to 50% of the uninhibited incorporation after removal of the blank reading (EDTA-stopped reaction).

CYP3A4 = target: T1, CYP3A4 (Homo sapiens, UniProt P08684); assay: Cytochrome P450 inhibition, isoenzyme 3A4; format: in vitro ADME; settings: baculovirus/insect cell-expressed recombinant human CYP3A4, read-out: Inhibition of the Cytochrome P450 Isoenzymes IC50, 3A4
T1 construct: host or cells: baculovirus/insect cells
T1 sequence (P08684 whole entry): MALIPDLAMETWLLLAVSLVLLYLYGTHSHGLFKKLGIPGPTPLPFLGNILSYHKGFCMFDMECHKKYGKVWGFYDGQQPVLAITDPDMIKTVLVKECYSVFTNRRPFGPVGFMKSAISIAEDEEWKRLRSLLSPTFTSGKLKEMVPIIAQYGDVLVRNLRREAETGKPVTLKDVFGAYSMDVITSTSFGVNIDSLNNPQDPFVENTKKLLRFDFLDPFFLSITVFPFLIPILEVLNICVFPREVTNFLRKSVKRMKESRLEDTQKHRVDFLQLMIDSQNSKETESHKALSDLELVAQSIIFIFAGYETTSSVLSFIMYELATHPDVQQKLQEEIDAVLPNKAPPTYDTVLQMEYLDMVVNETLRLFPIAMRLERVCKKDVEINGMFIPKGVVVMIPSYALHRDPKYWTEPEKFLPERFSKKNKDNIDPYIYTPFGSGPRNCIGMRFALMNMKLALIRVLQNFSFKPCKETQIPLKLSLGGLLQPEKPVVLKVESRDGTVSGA
Description: (§1) The Cytochrome P450 inhibition was performed according to the publication of Crespi et al. (Anal Biochem., 248, 188-190 (1997)) with use of baculovirus/insect cell-expressed, human Cytochrome P 450 isoenzymes (1A2, 2C9, 2C19, 2D6, 3A4).

CYP2C9 = target: T2, CYP2C9 (Homo sapiens, UniProt P11712); assay: Cytochrome P450 inhibition, isoenzyme 2C9; format: in vitro ADME; settings: baculovirus/insect cell-expressed recombinant human CYP2C9, read-out: Inhibition of the Cytochrome P450 Isoenzymes IC50, 2C9
T2 construct: host or cells: baculovirus/insect cells
T2 sequence (P11712 whole entry): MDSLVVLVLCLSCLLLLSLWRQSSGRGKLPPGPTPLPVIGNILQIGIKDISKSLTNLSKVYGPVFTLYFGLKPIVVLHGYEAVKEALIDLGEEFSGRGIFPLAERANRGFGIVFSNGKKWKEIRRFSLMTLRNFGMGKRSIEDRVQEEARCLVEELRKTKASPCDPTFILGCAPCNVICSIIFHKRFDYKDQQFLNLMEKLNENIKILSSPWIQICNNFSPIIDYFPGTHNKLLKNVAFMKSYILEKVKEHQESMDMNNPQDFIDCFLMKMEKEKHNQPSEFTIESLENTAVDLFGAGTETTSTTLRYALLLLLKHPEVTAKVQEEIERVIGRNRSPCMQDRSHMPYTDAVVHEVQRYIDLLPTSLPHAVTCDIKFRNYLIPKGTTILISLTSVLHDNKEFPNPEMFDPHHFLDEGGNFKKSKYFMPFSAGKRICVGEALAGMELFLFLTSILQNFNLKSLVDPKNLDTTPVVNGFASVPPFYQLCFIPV
Description: as §1

CYP2D6 = target: T3, CYP2D6 (Homo sapiens, UniProt P10635); assay: Cytochrome P450 inhibition, isoenzyme 2D6; format: in vitro ADME; settings: baculovirus/insect cell-expressed recombinant human CYP2D6, read-out: Inhibition of the Cytochrome P450 Isoenzymes IC50, 2D6
T3 construct: host or cells: baculovirus/insect cells
T3 sequence (P10635 whole entry): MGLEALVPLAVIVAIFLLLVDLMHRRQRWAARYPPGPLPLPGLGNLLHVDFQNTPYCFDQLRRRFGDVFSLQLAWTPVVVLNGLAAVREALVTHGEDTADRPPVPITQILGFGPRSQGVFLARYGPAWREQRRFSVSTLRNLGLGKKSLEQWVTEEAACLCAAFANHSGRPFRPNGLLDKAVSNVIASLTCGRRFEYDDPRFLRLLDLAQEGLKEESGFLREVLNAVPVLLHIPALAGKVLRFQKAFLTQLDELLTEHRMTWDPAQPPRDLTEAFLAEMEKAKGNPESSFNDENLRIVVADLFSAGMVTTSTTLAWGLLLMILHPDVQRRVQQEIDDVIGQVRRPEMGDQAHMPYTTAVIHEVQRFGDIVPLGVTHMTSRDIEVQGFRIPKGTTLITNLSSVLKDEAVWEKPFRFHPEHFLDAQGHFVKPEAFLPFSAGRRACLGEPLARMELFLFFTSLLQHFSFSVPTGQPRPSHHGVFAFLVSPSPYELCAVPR
Description: as §1

CYP2C19 = target: T4, CYP2C19 (Homo sapiens, UniProt P33261); assay: Cytochrome P450 inhibition, isoenzyme 2C19; format: in vitro ADME; settings: baculovirus/insect cell-expressed recombinant human CYP2C19, read-out: Inhibition of the Cytochrome P450 Isoenzymes IC50, 2C19
T4 construct: host or cells: baculovirus/insect cells
T4 sequence (P33261 whole entry): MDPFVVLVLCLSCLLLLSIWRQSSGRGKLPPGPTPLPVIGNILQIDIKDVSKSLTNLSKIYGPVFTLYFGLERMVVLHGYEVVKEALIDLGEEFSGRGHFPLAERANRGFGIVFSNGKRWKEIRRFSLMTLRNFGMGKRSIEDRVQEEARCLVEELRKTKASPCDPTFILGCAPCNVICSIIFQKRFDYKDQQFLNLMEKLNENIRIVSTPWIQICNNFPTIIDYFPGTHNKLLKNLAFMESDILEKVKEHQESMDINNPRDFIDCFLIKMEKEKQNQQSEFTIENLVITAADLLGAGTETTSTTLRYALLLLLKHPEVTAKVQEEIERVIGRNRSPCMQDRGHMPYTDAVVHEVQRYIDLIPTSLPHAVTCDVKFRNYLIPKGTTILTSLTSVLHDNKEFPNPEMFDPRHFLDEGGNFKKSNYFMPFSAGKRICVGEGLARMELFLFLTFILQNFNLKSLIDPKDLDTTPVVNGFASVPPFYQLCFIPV
Description: as §1

CYP1A2 = target: T5, CYP1A2 (Homo sapiens, UniProt P05177); assay: Cytochrome P450 inhibition, isoenzyme 1A2; format: in vitro ADME; settings: baculovirus/insect cell-expressed recombinant human CYP1A2, read-out: Inhibition of the Cytochrome P450 Isoenzymes IC50, 1A2
T5 construct: host or cells: baculovirus/insect cells
T5 sequence (P05177 1-516): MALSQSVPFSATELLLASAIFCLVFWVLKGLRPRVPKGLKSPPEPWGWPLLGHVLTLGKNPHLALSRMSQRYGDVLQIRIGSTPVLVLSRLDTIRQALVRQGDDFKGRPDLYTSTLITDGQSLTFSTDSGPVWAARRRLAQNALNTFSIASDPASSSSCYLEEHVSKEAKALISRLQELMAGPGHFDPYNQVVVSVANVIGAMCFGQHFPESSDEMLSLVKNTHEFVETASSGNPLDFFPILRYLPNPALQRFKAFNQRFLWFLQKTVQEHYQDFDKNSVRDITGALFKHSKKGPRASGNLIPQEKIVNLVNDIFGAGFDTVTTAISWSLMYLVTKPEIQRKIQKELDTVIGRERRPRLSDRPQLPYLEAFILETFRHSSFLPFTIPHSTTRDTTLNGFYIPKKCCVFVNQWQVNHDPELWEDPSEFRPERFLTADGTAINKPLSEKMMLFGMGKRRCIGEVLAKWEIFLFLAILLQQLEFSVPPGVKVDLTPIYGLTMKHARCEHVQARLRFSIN
Description: as §1

Chain of VEGFR II (KDR) (P35968 20-1356, species assumed): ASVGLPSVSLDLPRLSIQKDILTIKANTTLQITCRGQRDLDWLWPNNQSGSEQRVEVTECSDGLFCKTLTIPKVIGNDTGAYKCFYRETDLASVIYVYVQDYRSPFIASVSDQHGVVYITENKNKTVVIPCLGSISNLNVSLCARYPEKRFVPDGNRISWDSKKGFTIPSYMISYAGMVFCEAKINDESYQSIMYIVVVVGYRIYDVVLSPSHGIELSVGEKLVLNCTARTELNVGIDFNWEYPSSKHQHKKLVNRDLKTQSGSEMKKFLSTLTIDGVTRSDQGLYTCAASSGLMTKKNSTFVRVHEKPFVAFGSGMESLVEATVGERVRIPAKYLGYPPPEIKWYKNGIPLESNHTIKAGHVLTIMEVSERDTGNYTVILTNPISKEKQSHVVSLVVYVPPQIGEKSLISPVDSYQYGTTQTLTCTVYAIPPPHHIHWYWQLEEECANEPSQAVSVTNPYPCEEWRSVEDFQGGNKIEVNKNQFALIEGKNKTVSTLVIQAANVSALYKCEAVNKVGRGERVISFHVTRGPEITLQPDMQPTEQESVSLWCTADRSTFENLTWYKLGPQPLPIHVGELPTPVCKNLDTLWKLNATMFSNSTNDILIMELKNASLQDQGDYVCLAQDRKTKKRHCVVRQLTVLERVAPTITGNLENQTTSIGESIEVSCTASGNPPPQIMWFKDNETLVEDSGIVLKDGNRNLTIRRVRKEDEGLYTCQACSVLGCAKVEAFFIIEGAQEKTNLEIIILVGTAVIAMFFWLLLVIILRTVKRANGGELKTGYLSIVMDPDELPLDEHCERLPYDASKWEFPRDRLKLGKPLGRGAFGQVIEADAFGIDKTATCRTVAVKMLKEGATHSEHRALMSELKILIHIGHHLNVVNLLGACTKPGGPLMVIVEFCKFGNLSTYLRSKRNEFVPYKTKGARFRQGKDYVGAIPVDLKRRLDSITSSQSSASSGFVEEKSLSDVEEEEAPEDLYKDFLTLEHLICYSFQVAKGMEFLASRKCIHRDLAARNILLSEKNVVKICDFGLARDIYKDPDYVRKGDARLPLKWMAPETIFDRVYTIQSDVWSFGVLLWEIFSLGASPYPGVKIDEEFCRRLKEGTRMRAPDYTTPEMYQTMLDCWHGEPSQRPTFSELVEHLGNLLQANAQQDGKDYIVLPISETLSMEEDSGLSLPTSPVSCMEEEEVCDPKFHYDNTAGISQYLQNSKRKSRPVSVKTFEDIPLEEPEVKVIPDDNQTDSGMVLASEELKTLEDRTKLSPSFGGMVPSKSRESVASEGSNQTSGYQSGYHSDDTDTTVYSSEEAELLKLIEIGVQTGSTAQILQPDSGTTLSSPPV

Compound	pIC50 (VEGFR II (KDR))	pIC50 (CYP3A4)	pIC50 (CYP2C9)	pIC50 (CYP2D6)	pIC50 (CYP2C19)	pIC50 (CYP1A2)	melting point [°C]
O=C(Nc1cc2ccccc2cn1)c1ccccc1NCc1cc[n+]([O-])cc1 [Example 1, N-(Isoquinolin-3-yl)-2-(4-pyridylmethyl)aminobenzoic acid amide-N-oxide]	7.52	< 4.52	5.28	< 4.52	5.44	< 4.52	–
O=C(Nc1cc2ccccc2cn1)c1ccccc1NCc1ccc[n+]([O-])c1 [Example 2]	6.70	–	–	–	–	–	191.9
O=C(Nc1cccc(C(F)(F)F)c1)c1ccccc1NCc1cc[n+]([O-])cc1 [Example 4]	7.30	–	–	–	–	–	181 to 184
O=C(Nc1cc2ccccc2cn1)c1cccnc1NCc1cc[n+]([O-])cc1 [Example 7]	7.30	–	–	–	–	–	196.2
O=C(Nc1cccc(C(F)(F)F)c1)c1cccnc1NCc1cc[n+]([O-])cc1 [Example 8]	7.30	–	–	–	–	–	–
